Experimental data reported in ChEMBL document CHEMBL1155107, “Oxidative transformation of 2-acetylaminofluorene by a chemical model for cytochrome P450: A water-insoluble porphyrin and tert-butyl hydroperoxide” (Bioorg Med Chem, 2008).

System: Salmonella typhimurium
Assay: Toxicity in Salmonella Typhimurium TA1538 assessed as induction of mutagenicity using cytochrome P450 chemical model after 44 hrs by Ames test
Type: organism-based
Conditions: salmonella enterica subsp. enterica serovar typhimurium

How did the Activity turn out when `CC(=O)Nc1ccc2c(c1)Cc1ccccc1-2` [2-ACETYLAMINOFLUORENE] was run?
The Activity was “Dose-dependent effect”.
